Measured values: patent US20240156800A1, “EP300 DEGRADER AND USES THEREOF IN NEUROBLASTOMA” (DANA-FARBER CANCER INSTITUTE, INC., priority 2021, published 2024)

Tests used:
CBP = molecular target: T1, CBP (Homo sapiens, UniProt Q92793); test: SILAC mass spectrometry of the nuclear proteome of Kelly cells (CBP); assay type: cell-based; conditions: 500 nM, 24 h, nuclear extract
T1 construct: Cells growing in culture were lysed for whole cell lysates; endogenous in cells; host or cells: Kelly, NGP, SIMA, BE2C neuroblastoma cells; Kelly xenografts in NSG mice
T1 sequence (Q92793 whole entry): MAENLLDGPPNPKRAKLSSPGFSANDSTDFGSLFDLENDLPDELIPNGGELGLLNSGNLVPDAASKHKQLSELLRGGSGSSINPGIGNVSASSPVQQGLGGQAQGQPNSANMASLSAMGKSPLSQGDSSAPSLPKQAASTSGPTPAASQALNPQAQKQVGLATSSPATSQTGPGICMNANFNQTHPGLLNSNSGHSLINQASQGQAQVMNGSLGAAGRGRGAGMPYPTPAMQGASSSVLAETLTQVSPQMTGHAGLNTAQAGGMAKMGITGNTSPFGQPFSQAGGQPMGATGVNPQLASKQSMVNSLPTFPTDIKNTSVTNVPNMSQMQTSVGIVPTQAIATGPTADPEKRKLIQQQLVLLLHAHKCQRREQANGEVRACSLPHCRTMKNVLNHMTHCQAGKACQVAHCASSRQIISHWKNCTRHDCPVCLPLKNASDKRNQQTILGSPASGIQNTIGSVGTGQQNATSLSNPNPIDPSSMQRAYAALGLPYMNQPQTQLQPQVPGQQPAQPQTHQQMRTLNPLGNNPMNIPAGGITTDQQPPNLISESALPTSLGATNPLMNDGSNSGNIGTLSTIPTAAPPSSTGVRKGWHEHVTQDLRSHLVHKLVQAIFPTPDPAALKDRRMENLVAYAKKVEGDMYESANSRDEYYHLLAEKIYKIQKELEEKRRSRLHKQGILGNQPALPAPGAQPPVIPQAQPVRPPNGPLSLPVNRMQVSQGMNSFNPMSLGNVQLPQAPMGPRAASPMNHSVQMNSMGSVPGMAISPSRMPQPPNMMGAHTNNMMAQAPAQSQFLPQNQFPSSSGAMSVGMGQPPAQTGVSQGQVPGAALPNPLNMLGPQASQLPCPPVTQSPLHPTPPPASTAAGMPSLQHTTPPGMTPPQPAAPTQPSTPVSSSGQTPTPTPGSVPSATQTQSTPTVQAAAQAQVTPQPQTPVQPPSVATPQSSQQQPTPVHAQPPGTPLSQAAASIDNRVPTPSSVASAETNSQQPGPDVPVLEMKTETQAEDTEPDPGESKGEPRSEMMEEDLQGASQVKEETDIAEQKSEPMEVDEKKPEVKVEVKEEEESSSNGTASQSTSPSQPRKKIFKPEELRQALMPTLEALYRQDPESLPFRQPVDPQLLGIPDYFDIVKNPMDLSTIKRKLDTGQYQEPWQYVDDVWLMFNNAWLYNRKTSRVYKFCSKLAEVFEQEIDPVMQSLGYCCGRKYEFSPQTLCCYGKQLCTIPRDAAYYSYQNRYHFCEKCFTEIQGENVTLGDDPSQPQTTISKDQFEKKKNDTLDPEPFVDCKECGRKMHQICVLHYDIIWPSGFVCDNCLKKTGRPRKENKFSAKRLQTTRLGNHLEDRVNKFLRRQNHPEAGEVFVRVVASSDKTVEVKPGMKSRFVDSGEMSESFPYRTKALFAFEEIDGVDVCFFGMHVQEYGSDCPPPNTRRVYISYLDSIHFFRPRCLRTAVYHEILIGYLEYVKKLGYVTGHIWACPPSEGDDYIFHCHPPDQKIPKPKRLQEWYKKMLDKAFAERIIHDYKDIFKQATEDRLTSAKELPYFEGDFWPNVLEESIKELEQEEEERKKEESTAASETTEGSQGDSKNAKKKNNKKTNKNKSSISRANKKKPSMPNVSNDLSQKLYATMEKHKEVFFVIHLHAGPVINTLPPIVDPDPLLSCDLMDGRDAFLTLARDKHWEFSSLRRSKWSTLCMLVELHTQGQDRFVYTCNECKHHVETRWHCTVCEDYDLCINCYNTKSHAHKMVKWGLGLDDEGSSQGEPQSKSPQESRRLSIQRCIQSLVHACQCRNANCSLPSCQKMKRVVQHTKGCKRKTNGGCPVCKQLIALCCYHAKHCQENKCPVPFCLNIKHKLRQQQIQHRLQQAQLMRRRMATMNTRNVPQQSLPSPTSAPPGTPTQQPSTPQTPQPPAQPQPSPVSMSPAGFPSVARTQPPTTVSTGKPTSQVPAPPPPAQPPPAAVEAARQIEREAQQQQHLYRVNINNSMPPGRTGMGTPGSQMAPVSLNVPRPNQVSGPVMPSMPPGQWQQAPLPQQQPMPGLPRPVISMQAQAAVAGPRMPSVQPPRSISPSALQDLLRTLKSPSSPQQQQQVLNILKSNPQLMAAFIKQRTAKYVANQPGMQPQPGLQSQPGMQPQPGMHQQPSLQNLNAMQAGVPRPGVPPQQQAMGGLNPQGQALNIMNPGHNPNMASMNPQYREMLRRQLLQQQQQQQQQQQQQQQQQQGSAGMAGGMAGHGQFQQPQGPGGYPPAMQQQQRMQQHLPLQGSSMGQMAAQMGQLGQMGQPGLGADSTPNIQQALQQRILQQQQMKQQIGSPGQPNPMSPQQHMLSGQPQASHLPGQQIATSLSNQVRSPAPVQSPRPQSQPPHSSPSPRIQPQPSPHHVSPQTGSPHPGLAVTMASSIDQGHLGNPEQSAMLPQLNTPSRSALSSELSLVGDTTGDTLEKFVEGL
Method: Because JQAD1 interacted preferentially with both EP300 and CRBN, whether JQAD1 preferentially induces degradation of EP300 compared to CBP in MYCN-amplified neuroblastoma cells was examined. […] To further examine the specificity of JQAD1 for EP300, an analysis of the effects of JQAD1 in stable isotope labeling by amino acids in cell culture (SILAC)-labelled Kelly cells was performed (FIG. 3F). Kelly cells were cultured with SILAC media containing heavy or light-labelled arginine and lysine. Heavy labelled cells were treated with 500 nM JQAD1, and light-labelled cells treated with dimethyl sulfoxide (DMSO) for 24 h, prior to nuclear extraction and protein lysis. […] Protein abundance was then analyzed by mass spectrometry, to determine global changes in the nuclear proteome. […] To expand upon these findings, three NB cell lines, Kelly, NGP and SIMA, which have high levels of CRBN (e.g., protein or mRNA) (FIG. 8C), were treated with JQAD, and the effects on specific proteins were measured by western blotting. […] Peptides were detected, isolated, and fragmented to produce a tandem mass spectrum of specific fragment ions for each peptide. Peptide sequences and protein identity were determined by matching protein databases with the acquired fragmentation pattern by Sequest® (Thermo Fisher Scientific) (Eng et al. J. Am. Soc. Mass Spectrom. 5:976-89 (1994)). […]

BE2C-CRBN cells = test: Cell-Titer Glo growth of BE2C cells overexpressing CRBN or zsGreen; assay type: cell-based, human; conditions: 10 μM, 6 days
Method: Cells were infected with lentiviruses encoding sgRNAs or treated with compounds as described. Colony assays were performed by replating cells at 500 cells per well in 6-well dishes and grown in regular growth media for 10 d before 100% methanol fixation, 0.05% crystal violet staining, and quantitation. Experiments were completed in triplicate; data shown are the average of three independent experiments. Cell Titer-Glo® assay was performed as per the manufacturer's instructions (Promega®). Briefly, 1000 cells/well were plated into 96-well plates and treated with a range of compound dosing. Cell viability was measured at the noted time points based on luminescence by the Cell Titer-Glo® assay (Promega®) and read on an Envision 2104 (PerkinElmer®, USA) according to the manufacturer's protocol.
sgRNAs targeting individual genes were subcloned by standard methodologies within pLKO.5-EFGP. Kelly, SIMA, BE2C, and NGP cells were infected with lenticas9 followed by blasticidin selection. Stable expression of cas9 was established by western blotting of protein lysates using cas9 antibody (Cell Signaling Technology®). Following infection of pLKO.5-EGFP-sgRNA lentivirus, cells were cultured for the identified times prior to evaluation. BE2C cells were infected with pLC-zsgreen or pLC-CRBN lentiviruses and selected using 500 μg/mL hygromycin (Invitrogen™)

[1] = tested on: pro- and anti-apoptotic mRNA transcripts; test: ERCC spike-in RNA-seq of treated Kelly cells; assay type: cell-based, human; conditions: 500 nM, 24 h
Method: For in vitro analyses, total RNA was extracted from control […] or JQAD1 treated Kelly cells using TRIzolTM reagent (Ambion). Prior to extraction, exogenous spike-in of synthetic External RNA Control Consortium (ERCC) RNA controls were added based on cell number (Ambion). Samples were treated with RNAse-free DNAse I and spin purified using the Qiagen® RNeasy Kit (Qiagen®). Purified RNA samples were subjected to library construction with poly-adenylation preparation and sequencing using the Illumina NextSeq® 500 (paired end, 75bp reads). RNA-seq reads were aligned to a reference index containing the sequences of the hg19 revision of the human reference genome and the ERCC spike-in probes using hisat 2.1.0. Expression was quantified using sorted BAMs, a gene reference built using ERCC sizes and RefSeq genes downloaded Jul. 15, 2017, and htseq-count with parameters -I gene_id- stranded=reverse -f bam -m intersection-strict. Read counts were converted to transcripts per million (TPM) and used for cell number-normalization. The expression of all RefSeq genes and ERCC probes was floored at 0.01 and a pseudocount of 0.1 was added to all entries. Values were normalized by equilibrating the expression of the ERCC probes among experiments using normalize.loess from the affy R package. The ERCC-normalized expression of each gene after 24 h of either […] or JQAD1 treatment was compared against its expression in dimethyl sulfoxide (DMSO) treated samples to create two-fold changes.

## C[C@H](N(Cc1ccc(F)cc1)C(=O)CN1C(=O)O[C@@]2(CCc3cc(NC(=O)CCCCCCCCCCCNc4ccc5c(c4)C(=O)N(C4CCC(=O)NC4=O)C5=O)ccc32)C1=O)C(F)(F)F (stereo partly drawn) [JQAD1, 12-((2-(2,6-dioxopiperidin-3-yl)-1,3-dioxoisoindolin-5-yl)amino)-N-((R)-3′-(2-((4-fluorobenzyl)((S)-1,1,1-trifluoropropan-2-yl)amino)-2-oxoethyl)-2′,4′-dioxo-2,3-dihydrospiro[indene-1,5′-oxazolidin]-5-yl)dodecanamide]
CBP
  CBP protein abundance: remained detectable at similar levels as controls
BE2C-CRBN cells
  growth of BE2C-CRBN cells: suppressed
[1]
  transcript levels of BIM, BID, PUMA, BAX, BCL2 and MCL1: upregulation
[1]; JQAD1 versus A485
  gene set enrichment analysis, hallmark gene sets: enrichment of the apoptosis hallmark gene set
